Key:
Type in all cases: physicochemical
[1] = Test Example 1: transmittance of optical absorption film before and after reliability evaluation (85° C., 85% relative humidity, 120 hours); conditions: for Tave 425~465 nm, Δ / Tave 466~480 nm, Δ / Tave 480~560 nm, Δ / Tmin 425~465 nm, Δ / Tmin 466~480 nm, Δ / Λmax Tmax, Δ: change rate 100×(A−B)/B; for Tmin 425~465 nm, B: silicone resin film about 6 μm; for Tmin 425~465 nm, B / Tmin 425~465 nm, A / Tmin 466~480 nm, A / Tmin 466~480 nm, B: minimum transmittance; for Tmin 425~465 nm, B / Tave 425~465 nm, B / Tave 466~480 nm, B / Tave 480~560 nm, B / Tmin 466~480 nm, B: before reliability evaluation; for Tave 425~465 nm, A / Tave 466~480 nm, A / Tave 480~560 nm, A / Tave 425~465 nm, B / Tave 466~480 nm, B / Tave 480~560 nm, B / Tmin 425~465 nm, A / Tmin 466~480 nm, A / Tmin 466~480 nm, B: silicone resin film; for Tave 425~465 nm, A / Tave 466~480 nm, A / Tave 480~560 nm, A / Tave 425~465 nm, B / Tave 466~480 nm, B / Tave 480~560 nm, B: average transmittance; for Tave 425~465 nm, A / Tave 466~480 nm, A / Tave 480~560 nm, A / Tmin 425~465 nm, A / Tmin 466~480 nm, A: after 85° C., 85% relative humidity, 120 hours
Description: 2. Evaluation of Transmittance Spectrum
The transmittance spectrum was measured by using a spectrophotometer (Manufacturer: Perkinelmer Co., Product Name: Lambda 750 Spectrophotometer) for a specimen obtained by cutting the measurement subject (e.g., an optical absorption film) to 10 mm and 10 mm in width and length, respectively. The transmittance spectrum was measured for each wavelength and incident angle according to the manual of the equipment. The specimen was placed on a straight line between the measuring beam and the detector of the spectrophotometer, and the transmittance spectrum was checked while changing the incident angle of the measuring beam from 0° to 40°. Unless specifically stated otherwise, the result of the transmittance spectrum in this embodiment was the result when the incident angle is 0°. The incident angle of 0° is a direction substantially parallel to the direction normal to the surface of the specimen.
The average transmittance within a predetermined wavelength region in the transmittance spectrum was the result of measuring the transmittance of each wavelength while increasing the wavelength by 1 nm from the shortest wavelength in the wavelength region, and then calculating the arithmetic average of the measured transmittance. The maximum transmittance is the maximum one among the transmittance measured while increasing the wavelength by 1 nm. For example, the average transmittance within the wavelength range of 350 nm to 360 nm is the arithmetic average of transmittances measured at wavelengths of 350 nm, 351 nm, 352 nm, 353 nm, 354 nm, 355 nm, 356 nm, 357 nm, 358 nm, 359 nm and 360 nm and the maximum transmittance within the wavelength range of 350 nm to 360 nm is the highest transmittance among transmittances measured at wavelengths of 350 nm, 351 nm, 352 nm, 353 nm, 354 nm, 355 nm, 356 nm, 357 nm, 358 nm, 359 nm and 360 nm.
(§1) A coating solution was prepared by mixing a silicone resin (Dow Chemical, RSN-0217) as a resin component, an optical absorbent, and a solvent (Cyclohexanone). The mixing ratio of the resin component, the optical absorbent and the solvent was 69.3:0.99:29.7 in weight ratio (Resin:Optical Absorbent:Solvent).
(§2) The coating solution was coated on a transparent substrate (a glass substrate manufactured by SCHOTT Co.) and maintained at 140° C. for about 2 hours to form an optical absorption film having a thickness of about 6 μm. The optical absorbent of Embodiment 1, Embodiment 2 or Comparative Example 1 was used as the optical absorbent.
Table 2 below summarizes the transmittance of the optical absorption film before and after reliability evaluation in the ultraviolet and the near infrared regions. The reliability evaluation is an evaluation of the optical absorption film maintained at 85° C. and 85% relative humidity for 120 hours. In Table 2, B means the result before performing the reliability evaluation, and A means the result after performing the reliability evaluation. In addition, in Table 2, Λmax means the transmittance at the absorption maximum.
In Table 2, Δ is the change rate (%) of each characteristic before and after the reliability evaluation and it is a result calculated as 100×(A−B)/B, where A is a numerical value indicated under column A in Table 2, and B is a numerical value indicated under column B in Table 2. In Table 2, Tmax denotes the highest transmittance within a corresponding wavelength range, Tave denotes an average transmittance within a corresponding wavelength range, and Tmin denotes a minimum transmittance within a corresponding wavelength range.

[2] = Measuring solubility of the optical absorbent in methylene chloride; conditions: room temperature (about 25° C.)
Description: 3. Measuring Solubility The solubility of the optical absorbent was evaluated. Solubility was determined according to the following criteria by evaluating the solubility of the optical absorbent in the solvent (MC, Methylene Chloride) at room temperature (about 25° C.). <Solubility Criteria> • A: When the solubility is 1% by mass or more. • B: When the solubility is 0.5% by mass or more and less than 1% by mass. • C: When the solubility is 0.2% by mass or more and less than 0.5% by mass. • D: When the solubility is less than 0.2% by mass. 4. Pyrolysis Temperature (Td 5%) Analysis

[3] = Test Example 2: absorption maximum of optical absorption film before and after high temperature and high humidity evaluation; conditions: for ΔA: 100×(Af−Ai)/Ai; for Δλ: 100×(λf−λi)/λi; for Ai (transmittance at the absorption maximum wavelength) / λi (absorption maximum wavelength): optical absorption film before being maintained at 85° C.; for Af (transmittance at the absorption maximum wavelength) / λf (absorption maximum wavelength): optical absorption film maintained at 85° C.
Description: as §1, §2
For the optical absorption film prepared in Test Example 1, the absorbance spectrum of the optical absorption film prepared by using the optical absorbent of Embodiment 1 is shown in FIG. 7, the absorbance spectrum of the optical absorption film prepared by using the optical absorbent of Embodiment 2 is shown in FIG. 8, and the absorbance spectrum of the optical absorption film prepared by using the optical absorbent of Comparative Example 1 is shown in FIG. 9. In FIGS. 7 to 9, A-1, A-2, and A-3 indicate evaluations of the optical absorption films of Embodiments 1 and 2 and Comparative Example 1, respectively. […] The high-temperature and high-humidity evaluation is an evaluation where the optical absorption film is maintained at a temperature of 85° C. and under a relative humidity of 85% for 120 hours.
In Table 3, Af is the transmittance at the absorption maximum wavelength of the optical absorption film maintained at 85° C. temperature and under 85% relative humidity for 120 hours, λf is the absorption maximum wavelength at this time, and Ai is the transmittance at the absorption maximum wavelength of the optical absorption film before being maintained at 85° C. temperature and under 85% relative humidity for 120 hours. λi is the absorption maximum wavelength at this time.
In Table 3, ΔA is a value calculated as 100×(Af−Ai)/Ai and Δλ is a value calculated as 100×(λf−λi)/λi.

[4] = Pyrolysis temperature (Td 5%) analysis by TGA; conditions: 25° C. to 800° C., 10° C./min, nitrogen 60 cm^3/min
Description: The Td 5% is a value obtained through Thermogravimetric Analysis (TGA). It is a value (Td 5%) at the weight loss of 95% confirmed in a temperature range of 25° C. to 800° C., with a heating rate of 10° C./min and under nitrogen (N2) atmosphere condition of 60 cm^3/min.
Thermogravimetric analysis (TGA) was performed by using TGA N-1000 equipment manufactured by Scinco Co. The analysis was performed by using about 3 mg of the sample (optical absorbent) and the analysis was conducted at a temperature range of 25° C. to 800° C., with a temperature increase rate of 10° C./min, and under 60 cm^3/min of a nitrogen (N2) atmosphere. As for the Td pyrolysis temperature, the value(Td 5%) at 95% weight loss was used.

[5] = Measuring absorption maximum of the optical absorbent in chloroform; conditions: about 10^−5 M
Description: 1. Measuring Absorption Maximum
The absorption maximum was evaluated by a conventional method. Specifically, the sample was dissolved in a chloroform solvent at a concentration of about 10^−5 M and then evaluated by using a measuring instrument (Agilent, Varian Cary 4000).

[6] = 85% relative humidity, 120 hours

Compound | Tave 425~465 nm, Δ [1] [%] | Tave 466~480 nm, Δ [1] [%] | Tave 480~560 nm, Δ [1] [%] | Tmin 425~465 nm, Δ [1] [%] | Tmin 466~480 nm, Δ [1] [%] | Λmax Tmax, Δ [1] [%] | Tmin 425~465 nm, B [1] | Tave 425~465 nm, A [1] | Tave 466~480 nm, A [1] | Tave 480~560 nm, A [1] | Tave 425~465 nm, B [1] | Tave 466~480 nm, B [1] | Tave 480~560 nm, B [1] | Tmin 425~465 nm, A [1] | Tmin 466~480 nm, A [1] | Tmin 466~480 nm, B [1] | Solubility [2] | ΔA [3] [%] | Δλ [3] [%] | Ai (transmittance at the absorption maximum wavelength) [3, 6] [%] | also measured
C/C(C1=Nc2ccc([Si](C)(C)C)cc2C1(C)C)=C1/C(=O)C(C(/C)=C2/Nc3ccc([Si](C)(C)C)cc3C2(C)C)=C1O [Comparative Example 1, reference compound] | 0 | −0.1 | −0.1 | 0.3 | −0.1 | 34.7 | 91.35 | 92.03 | 92.07 | 92.27 | 91.99 | 92.14 | 92.32 | 91.62 | 91.76 | 91.84 | A (When the solubility is 1% by mass or more) | 36.7 | 24.4 | 66.3 | λi (absorption maximum wavelength) [3, 6]: 731 nm; Af (transmittance at the absorption maximum wavelength) [3, 6]: 90.6%; λf (absorption maximum wavelength) [3, 6]: 909 nm; light absorption characteristics before and after high temperature and high humidity ([3]; optical absorption film, 85° C., 85% relative humidity, 120 hours, FIGS. 7 to 9): almost lost; Td 5% (5% pyrolysis temperature) [4]: 187 °C; Absorption Maximum Wavelength [5]: 738 nm; Absorption Maximum Wavelength ([5]; listed as A3): about 738 nm
CC1N(CCC[Si](C)(C)C)c2ccc(C3=C([O-])/C(=c4\ccc5c(c4)C(C)(C)C(C)[N+]=5CCC[Si](C)(C)C)C3=O)cc2C1(C)C (stereo not shown) [Embodiment 1] | −0.3 | −0.1 | −0.1 | −0.2 | 0 | 8.2 | 89.64 | 90.26 | 89.58 | 91.06 | 90.49 | 89.64 | 91.17 | 89.42 | 89.10 | 89.06 | A (When the solubility is 1% by mass or more) | 8.2 | 0 | 6.12 | λi (absorption maximum wavelength) [3, 6]: 658 nm; Af (transmittance at the absorption maximum wavelength) [3, 6]: 6.62%; λf (absorption maximum wavelength) [3, 6]: 658 nm; Td 5% (5% pyrolysis temperature) [4]: 247 °C; Absorption Maximum Wavelength [5]: 652 nm; Absorption Maximum Wavelength ([5]; listed as A1): about 652 nm
CC1N(CCC[Si](C)(C)C)c2c(cc(C3=C([O-])/C(=c4/cc5c(c6ccccc46)=[N+](CCC[Si](C)(C)C)C(C)C5(C)C)C3=O)c3ccccc23)C1(C)C (stereo not shown) [Embodiment 2] | −0.2 | 0 | −0.1 | −0.3 | 0.1 | 7 | 88.75 | 89.72 | 88.64 | 90.86 | 89.87 | 88.61 | 90.93 | 88.52 | 87.95 | 87.88 | A (When the solubility is 1% by mass or more) | 6.8 | 0 | 8.91 | λi (absorption maximum wavelength) [3, 6]: 765 nm; Af (transmittance at the absorption maximum wavelength) [3, 6]: 9.52%; λf (absorption maximum wavelength) [3, 6]: 765 nm; Td 5% (5% pyrolysis temperature) [4]: 260 °C; Absorption Maximum Wavelength [5]: 772 nm; Absorption Maximum Wavelength ([5]; listed as A2): about 772 nm
